{"source": "patent US12437835B2", "about": "“Interrogatory cell-based assays and uses thereof” (Berg LLC, priority 2012, dated 2025)", "key": {"Bcl2 [1]": {"test_system": "Bcl2", "conditions": "melanoma cell, in the presence of VEGF; cited from earlier work"}, "HUVEC cells [2]": {"test_system": "HUVEC cells", "assay": "HUVEC bioenergetics (Seahorse assays)", "type": "cell-based, Human", "conditions": "sub-confluent HUVEC cultures, CoQ10 10, 100, 1500 μM", "procedure": "The bioenergetics of HUVEC cells were assessed in the presence of various concentrations of CoQ10. Specifically, HUVEC cells were grown in subconfluent or confluent conditions in the absence or presence of CoQ10 (10, 100, 1500 μM). Oxygen consumption rates (OCR), both total and mitochondrial, ATP production, and Extra Cellular Acidification Rate (ECAR) were assessed using Seahorse assays."}, "Bcl2 [3]": {"test_system": "Bcl2", "conditions": "normal fibroblast, co-administration of CoQ-10 and VEGF; cited from earlier work"}, "GPAT1": {"test_system": "GPAT1", "assay": "Western blotting of GPAT1 in cardiomyocytes", "type": "cell-based, Human", "conditions": "hyperglycemia conditioned cardiomyocytes, diabetic drug plus Coenzyme Q10 (T+R)", "procedure": "(§1) Human cardiomyocytes were subject to conditions simulating an diabetic environment experienced by the disease-relevant cells in vivo. Specifically, the cells were exposed to hyperglycemic conditions and hyperlipidemia conditions. The hyperglycemic condition was induced by culturing cells in media containing 22 mM glucose. The hyperlipidemia condition was induced by culturing the cells in media containing 1 mM L-carnitine, 0.7 mM Oleic acid and 0.7 mM Linoleic acid.\n(§2) The cell model comprising the above-mentioned cells, wherein the cells were exposed to each condition described above, was additionally “interrogated” by exposing the cells to an “environmental perturbation” by treating with a diabetic drug (T) which is known to cause cardiotoxicity, a rescue molecule (R) or both the diabetic drug and the rescue molecule (T+R). Specifically, the cells were treated with diabetic drug; or treated with rescue molecule Coenzyme Q10 at 0, 50 µM, or 100 µM; or treated with both of the diabetic drug and the rescue molecule Coenzyme Q10.\n(§3) Protein expression levels of GPAT1 and TAZ for each condition and each treatment were tested with western blotting."}, "[4]": {"test_system": "hyperglycemia conditioned cardiomyocytes", "assay": "Mitochondrial oxygen consumption rate in hyperglycemia conditioned cardiomyocytes (Seahorse)", "type": "cell-based, Human", "conditions": "diabetic drug plus Coenzyme Q10 (T1+R or T2+R)", "procedure": "as §1\niProfiling of changes in total cellular protein expression by quantitative proteomics was performed for cell and media samples collected for each condition and with each “environmental perturbation”, i.e, diabetic drug treatment, Coenzyme Q10 treatment or both, using the techniques described above in the detailed description. Transcriptional profiling experiments were carried out using the Biorad cfx-384 amplification system. Following data collection (Ct), the final fold change over control was determined using the δCt method as outlined in manufacturer's protocol. Lipidomics experiments were carried out using mass spectrometry. Functional assays such as Oxygen consumption rate OCR were measured by employing the Seahorse analyzer essentially as recommended by the manufacturer. OCR was recorded by the electrodes in a […] chamber created with the cartridge pushing against the seahorse culture plate. […]"}, "HUVEC cells [5]": {"test_system": "HUVEC cells", "assay": "HUVEC apoptosis (annexin V/propidium iodide positive cells, flow cytometry)", "type": "cell-based, Human", "conditions": "for propidium iodide positive apoptotic cells: 24 hours", "procedure": "(§4) Methods: Human umbilical vein endothelial cell (HUVEC) fate decisions that modulate the angiogenic phenotype were examined in the presence of 100 or 1500 μM CoQ10 or excipient and compared to untreated control cells. Endothelial cell fate assays for apoptosis, proliferation, migration and 3-D tube formation within MATRIGEL® were performed.\nTo assess the potential effects of CoQ10 on endothelial migration, HUVEC migration was examined 5 hours post-cell clearance, in an endothelial scratch assay. […] In order to determine if the CoQ10 anti-tumor activity is due to effects on endothelial sprouting angiogenesis, we examined endothelial tube formation in 3-D MATRIGEL® cultures over time. Addition of excipient in both the gel and overlying media impaired tube formation compared to control.\nCoQ10 has divergent effects on endothelial cell survival: Confluent and sub-confluent cultures of HUVEC cells were treated for 24 hours with 100 or 1500 μM CoQ10 and assayed for propidium iodide positive apoptotic cells. The results are shown in FIGS. 53A and 53B, respectively."}, "HUVEC cells [6]": {"test_system": "HUVEC cells", "assay": "HUVEC cell numbers", "type": "cell-based, Human", "procedure": "as §4\nCoQ10 decreases endothelial cell numbers and proliferation: Sub-confluent cultures of HUVEC cells were treated for 72 hours with 100 or 1500 μM CoQ10 and assayed for both cell numbers (FIG. 54A) and proliferation (FIG. 54B) using a propidium iodide incorporation assay (detects G2/M phase DNA)."}, "HUVEC cells [7]": {"test_system": "HUVEC cells", "assay": "Nitric oxide (NO) generation in HUVEC under normoxia and hypoxia", "type": "cell-based, Human", "conditions": "subconfluent and confluent HUVEC, normoxic or hypoxic, 0, 100 or 1500 μM CoQ10", "procedure": "The response of HUVEC cells to normoxia and hypoxia in the presence of absence of CoQ10 was assessed. Specifically, HUVEC cells were grown in subconfluent and confluent cultures under normoxic or hypoxic conditions as described herein. The cells were also exposed to 0, 100, or 1500 μM CoQ10. Nitric oxide (NO) and reactive oxygen species (ROS) levels were determined using methods provided herein."}, "TAZ": {"test_system": "TAZ", "assay": "Western blotting of TAZ in cardiomyocytes", "type": "cell-based, Human", "conditions": "hyperglycemia conditioned cardiomyocytes, diabetic drug plus Coenzyme Q10 (T+R)", "procedure": "as §1, §2, §3"}, "[8]": {"test_system": "human mitochondrial energy metabolism genes", "assay": "Transcriptional profiling of mitochondrial energy metabolism genes in diabetic cardiomyocytes", "type": "cell-based", "conditions": "diabetic drug plus rescue molecule Coenzyme Q10 (T+R) vs untreated (UT)", "procedure": "as §1, with “acid. […]” for “acid.”\nCell samples from each condition with each perturbation treatment were collected at various times following treatment, including after 6 hours of treatment. For certain conditions, media samples were also collected and analyzed.\niProfiling of changes in total cellular protein expression by quantitative proteomics was performed for cell and media samples collected for each condition and with each “environmental perturbation”, i.e, diabetic drug treatment, Coenzyme Q10 treatment or both, using the techniques described above in the detailed description. […] Following data collection (Ct), the final fold change over control was determined using the δCt method as outlined in manufacturer's protocol. […] Functional assays such as Oxygen consumption rate OCR were measured by employing the Seahorse analyzer essentially as recommended by the manufacturer. […]"}}, "note": "“Also recorded” adds a separate entry of the source.", "data": [{"compound": "COC1=C(OC)C(=O)C(C/C=C(\\C)CC/C=C(\\C)CC/C=C(\\C)CC/C=C(\\C)CC/C=C(\\C)CC/C=C(\\C)CC/C=C(\\C)CC/C=C(\\C)CC/C=C(\\C)CCC=C(C)C)=C(C)C1=O", "note": "[CoQ10, Coenzyme Q10]", "values": [{"measurement": "level of Bcl2", "setting": "Bcl2 [1]", "value": "decreased"}, {"measurement": "mitochondrial OCR", "setting": "HUVEC cells [2]", "value": "reverts mitochondrial OCR to confluent level OCR"}, {"measurement": "levels of Bcl2", "setting": "Bcl2 [3]", "value": "no effect"}, {"measurement": "protein expression level of GPAT1", "setting": "GPAT1", "value": "normalized"}, {"measurement": "mitochondrial OCR (oxygen consumption rate)", "setting": "[4]", "value": "normalized"}, {"measurement": "mitochondrial OCR (oxygen consumption rate)", "setting": "[4]; listed as rescue molecule", "value": "normalizes"}, {"measurement": "HUVEC apoptosis (annexin V/propidium iodide positive cells)", "setting": "HUVEC cells [5]; 1500 μM CoQ10, compared to excipient or control cells", "value": "increase"}, {"measurement": "apoptosis / cell death of sub-confluent (angiogenic/proliferating) endothelial cells", "setting": "HUVEC cells [5]; concentration not stated (summary)", "value": "increases apoptosis; also recorded: selectively induces cell death"}, {"measurement": "cell death of confluent (non-proliferating) endothelial cells", "setting": "HUVEC cells [5]; concentration not stated or low doses (summary), compared to controls", "value": "protective; also recorded: decreased compared to controls"}, {"measurement": "propidium iodide positive apoptotic cells", "setting": "HUVEC cells [5]; confluent HUVEC, 100 or 1500 μM CoQ10", "value": "protective"}, {"measurement": "propidium iodide positive apoptotic cells", "setting": "HUVEC cells [5]; sub-confluent HUVEC, 1500 μM CoQ10", "value": "increased apoptosis"}, {"measurement": "HUVEC cell counts", "setting": "HUVEC cells [6]; 1500 μM CoQ10", "value": "significantly decreased"}, {"measurement": "cell numbers", "setting": "HUVEC cells [6]; sub-confluent HUVEC, 72 hours, 100 or 1500 μM, high concentrations of CoQ10", "value": "significant decrease; also recorded: decreased cell numbers"}, {"measurement": "generation of nitric oxide (NO)", "setting": "HUVEC cells [7]", "value": "differential dose dependent generation"}, {"measurement": "protein expression level of TAZ", "setting": "TAZ", "value": "normalized"}, {"measurement": "transcriptional network and expression of human mitochondrial energy metabolism genes", "setting": "[8]; listed as Coenzyme Q10", "value": "normalize gene expression and transcription"}, {"measurement": "transcriptional network and expression of human mitochondrial energy metabolism genes", "setting": "[8]; listed as rescue molecule", "value": "normalizes gene expression"}]}]}
